Tests used:
[1] = test system: Aβ1-42; experiment: Measurement of Aβ1-42 in culture medium of 7W WT APP751 CHO cells by ELISA; format: cell-based, Chinese hamster; conditions: for Aβ1-42 (% of control): CHO cells that overexpress APP751, zero = below the detection limit of the assay; for activity at 5 µM: Cricetulus griseus, Table 1, 5 μM test compound, CHO cells stably transfected with human APP751, culture medium, ELISA, control DMSO, 0 = no detectable amount, read-out: Aβ1-42 (% of control)
Method: (§1) Chinese hamster ovary (CHO) cells, stably transfected with human APP751 (7W WT APP751 CHO cells) were used. See, e.g., Koo and Squazzo, J. Biol. Chem., 269(26): 17386-17389, 1994. The cells were maintained in DMEM medium supplemented with 10% fetal bovine serum and 1× mixture of penicillin/streptomycin/fungizone/glutamine mixture (Cambrex, Md.) geneticin as selecting agent in 75 cm^2 cell culture flasks. The 7W WT APP751 CHO cells were plated in 96-well cell culture plates in quadruplicate, containing 200 microliters of culture medium, for 18 hours at 37° C. and 5% CO2. All test compounds were placed in dimethyl sulfoxide (DMSO) before being added to the cultured confluent 7W WT APP751 CHO cells to a concentration of the test compound of 5 μM. The culture medium was collected and diluted before being assayed by ELISAs for Aβ1-40 at 10-fold dilution and Aβ1-42 at 2-fold dilution, respectively. Concentrations of Aβ1-40 and Aβ1-42, expressed in pg/ml, were determined using commercially available ELISAs (Biosource, Calif.) in a colorimetric assay using labeled antibodies detected spectrophotometrically. For compounds with an identification beginning “RI”, the compounds were tested at a concentration of 10 μM for 24 hours. Control cells were treated with DMSO containing no compound. The percentage reduction in levels of Aβ1-40 and Aβ1-42 as compared to control cells not exposed to the test compounds are reported for the compounds in Tables 1, 2, and 3, supra. An entry of “0” indicates no detectable amount of Aβ1-40 or Aβ1-42 according to the assay conditions. The data in Tables 1, 2, and 3 may be rounded to the nearest 0.1%.

[2] = test system: Aβ1-40; experiment: Measurement of Aβ1-40 in culture medium of 7W WT APP751 CHO cells by ELISA; format: cell-based, Chinese hamster; conditions: for Aβ1-40 (% of control): CHO cells that overexpress APP751, zero = below the detection limit of the assay; for activity at 5 µM: Cricetulus griseus, Table 1, 5 μM test compound, CHO cells stably transfected with human APP751, culture medium, ELISA, control DMSO, 0 = no detectable amount
Method: as §1
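Also: 5 µM test compound but RI-coded compounds at 10 µM for 24 hours.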

SMILES	Aβ1-42 (% of control) [1]	Aβ1-40 (% of control) [2]	activity at 5 µM [1]	activity at 5 µM [2]
CCOC(=O)C1=C(C)NC(C)=C(C(=O)OCC)C1c1cccc(NC(=O)C(F)(F)F)c1 [ST003836, ethyl 5-(ethoxycarbonyl)-2,6-dimethyl-4-[3-(2,2,2-trifluoroacetylamino)phenyl]-1,4-dihydropyridine-3-carboxylate]	83.98 % of control	45.34 % of control		
CCc1cccc(NC(=O)CSC2=C(C#N)C(c3ccsc3)C(C(=O)Nc3ccccc3)=C(C)N2)c1 (centres unmarked) [RI_44]	60.1 % of control	93.1 % of control		
COc1ccc(COC(=O)C2=C(C)NC3=C(C(=O)CC(C)(C)C3)C2c2ccc(O)c(OC)c2)cc1 (centres unmarked) [ST017025, (4-methoxyphenyl)methyl 4-(4-hydroxy-3-methoxyphenyl)-2,7,7-trimethyl-5-oxo-1,4,6,7,8-pentahydroquinoline-3-carboxylate]			32.2%	30.1%
CC1=C(C(=O)OCCc2ccccc2)C(c2cccc(Br)c2)C2=C(CCCC2=O)N1 (centres unmarked) [ST052221, 2-phenylethyl 4-(3-bromophenyl)-2-methyl-5-oxo-1,4,6,7,8-pentahydroquinoline-3-carboxylate]			46.1%	62.4%
CC1=C(C(=O)OCCOc2ccccc2)C(c2coc3ccc(C)cc3c2=O)C2=C(CC(C)(C)CC2=O)N1 (centres unmarked) [ST052392, 2-phenoxyethyl 2,7,7-trimethyl-4-(6-methyl-4-oxochromen-3-yl)-5-oxo-1,4,6,7,8-pentahydroquinoline-3-carboxylate]			11.9%	28.1%
CCOC(=O)C1=CN(c2cc(C)ccc2C)C=C(C(=O)OCC)C1c1cccc(OC)c1OC [ST052450, ethyl 4-(2,3-dimethoxyphenyl)-1-(2,5-dimethylphenyl)-5-(ethoxycarbonyl)-1,4-dihydropyridine-3-carboxylate]	12.04 % of control	5.249 % of control		
CCOc1ccc(NC(=O)CSC2=C(C#N)C(c3ccco3)C(C(=O)Nc3ccccc3C)=C(C)N2)cc1 (centres unmarked) [ST051158, 2-{3-cyano-4-(2-furyl)-6-methyl-5-[N-(2-methylphenyl)carbamoyl](2-1,4-dihydropyridylthio)}-N-(4-ethoxyphenyl)acetamide]	15.87 % of control	17.68 % of control		
CCOC(=O)C1=C(C)NC2=C(C(=O)CCC2)C1c1ccc(O)c(OCC)c1 (centres unmarked) [ST013158, ethyl 4-(3-ethoxy-4-hydroxyphenyl)-2-methyl-5-oxo-1,4,6,7,8-pentahydroquinoline-3-carboxylate]			67.8%	75%
CCOC(=O)C1=C(C)NC2=C(C(=O)CCC2)C1c1cccc(O)c1 (centres unmarked) [ST013148, ethyl 4-(3-hydroxyphenyl)-2-methyl-5-oxo-1,4,6,7,8-pentahydroquinoline-3-carboxylate]			49.9%	66.1%
COc1ccccc1NC(=O)CSC1=C(C#N)C(c2ccsc2)C(C(=O)Nc2ccccc2)=C(C)N1 (centres unmarked) [RI_57]	37.3 % of control	49.1 % of control		
N#CC1=C(N)n2c(s/c(=C/c3ccncc3)c2=O)=C(C#N)C1c1ccncc1 (centres unmarked) [ST211853, 5-amino-3-oxo-7-(4-pyridyl)-2-(4-pyridylmethylene)-4,7-dihydro-1,3-thiazolidino[3,2-a]pyridine-6,8-dicarbonitrile]	18.37 % of control	49 % of control		
COc1ccc(C2C(C(=O)OC3CCCCC3)=C(C)NC3=C2C(=O)CCC3)cc1Br (centres unmarked) [ST013429, cyclohexyl 4-(3-bromo-4-methoxyphenyl)-2-methyl-5-oxo-1,4,6,7,8-pentahydroquinoline-3-carboxylate]			45.4%	31.9%
CCCCOC(=O)C1=C(C)NC2=C(C(=O)CC(C)(C)C2)C1c1ccc(Cl)c(Cl)c1 (centres unmarked) [ST215419, butyl 4-(3,4-dichlorophenyl)-2,7,7-trimethyl-5-oxo-1,4,6,7,8-pentahydroquinoline-3-carboxylate]			0%	0%
COc1ccc(CCNC(=O)CSC2=C(C#N)C(c3cccs3)C(C(=O)Nc3ccccc3)=C(C)N2)cc1OC (centres unmarked) [RI_15]	41.2 % of control	74.9 % of control		
COc1ccc(OC)c(C2C(C(=O)OCCc3ccccc3)=C(C)NC3=C2C(=O)CCC3)c1 (centres unmarked) [ST052373, 2-phenylethyl 4-(2,5-dimethoxyphenyl)-2-methyl-5-oxo-1,4,6,7,8-pentahydroquinoline-3-carboxylate]			37.4%	39.4%
CCCOc1ccc(C2C(C(=O)OCCSCC)=C(C)NC3=C2C(=O)CC(C)(C)C3)cc1OC (centres unmarked) [ST017116, 2-ethylthioethyl 4-(3-methoxy-4-propoxyphenyl)-2,7,7-trimethyl-5-oxo-1,4,6,7,8-pentahydroquinoline-3-carboxylate]			43%	43.5%
CCOC(=O)C1=CN(c2ccc(C)cc2)C=C(C(=O)OCC)C1c1ccccc1OCC [ST052284, ethyl 5-(ethoxycarbonyl)-4-(2-ethoxyphenyl)-1-(4-methylphenyl)-1,4-dihydropyridine-3-carboxylate]	55.61 % of control	57.71 % of control		
CCc1ccc(C2C(C(=O)OCc3ccccc3)=C(C)NC3=C2C(=O)CCC3)cc1 (centres unmarked) [ST015031, phenylmethyl 4-(4-ethylphenyl)-2-methyl-5-oxo-1,4,6,7,8-pentahydroquinoline-3-carboxylate]			71.3%	33.1%
COC(=O)C1=C(C)NC(C)=C(C(=O)OC)C1c1cc(-c2ccc(Cl)cc2Cl)co1 [ST045410, methyl 4-[4-(2,4-dichlorophenyl)(2-furyl)]-5-(methoxycarbonyl)-2,6-dimethyl-1,4-dihydropyridine-3-carboxylate]	69.44 % of control	75.13 % of control		
CC1=C(C(=O)Nc2ccc(Cl)cc2)C(c2ccsc2)C(C#N)=C(SCC(=O)Nc2cccc(C)c2)N1 (centres unmarked) [RI_14]	64.1 % of control	56.3 % of control		
COC(=O)C1=CN(C2CC2)C=C(C(=O)OC)C1c1ccc(Cl)cc1 [ST038738, methyl 4-(4-chlorophenyl)-1-cyclopropyl-5-(methoxycarbonyl)-1,4-dihydropyridine-3-carboxylate]	52.59 % of control	94.49 % of control		
COc1ccc(C2C(C(=O)OC3CCCC3)=C(C)NC3=C2C(=O)CCC3)cc1Br (centres unmarked) [ST013137, cyclopentyl 4-(3-bromo-4-methoxyphenyl)-2-methyl-5-oxo-1,4,6,7,8-pentahydroquinoline-3-carboxylate]			30%	18.7%
CCOC(=O)C1=C(C)NC(C)=C(C(=O)OC)C1c1cc(Cl)cc(Cl)c1OC (centres unmarked) [ST211424, methyl 4-(3,5-dichloro-2-methoxyphenyl)-5-(ethoxycarbonyl)-2,6-dimethyl-1,4-dihydropyridine-3-carboxylate]	91.29 % of control	62.46 % of control		
CCOCCOC(=O)C1=C(C)NC2=C(C(=O)CC(C)(C)C2)C1c1ccc(O)c(OC)c1 (centres unmarked) [ST013343, 2-ethoxyethyl 4-(4-hydroxy-3-methoxyphenyl)-2,7,7-trimethyl-5-oxo-1,4,6,7,8-pentahydroquinoline-3-carboxylate]			83%	61.1%
CCOc1ccccc1C1C(C(=O)OCCOc2ccccc2)=C(C)NC2=C1C(=O)CC(C)(C)C2 (centres unmarked) [ST052381, 2-phenoxyethyl 4-(2-ethoxyphenyl)-2,7,7-trimethyl-5-oxo-1,4,6,7,8-pentahydroquinoline-3-carboxylate]			62%	45.1%
CC1=C(C(=O)OCCc2ccccc2)C(c2ccc(C)s2)C2=C(CC(C)(C)CC2=O)N1 (centres unmarked) [ST052344, 2-phenylethyl 2,7,7-trimethyl-4-(5-methyl(2-thienyl))-5-oxo-1,4,6,7,8-pentahydroquinoline-3-carboxylate]			24.4%	24.1%
CCOCCOC(=O)C1=C(C)NC2=C(C(=O)CC(c3ccccc3)C2)C1c1ccc(Br)cc1 (centres unmarked) [ST017313, 2-ethoxyethyl 4-(4-bromophenyl)-2-methyl-5-oxo-7-phenyl-1,4,6,7,8-pentahydroquinoline-3-carboxylate]			85.4%	44.2%
CCOC(=O)C1=C(N)n2c(s/c(=C/c3ccco3)c2=O)=C(C(=O)OCC)C1c1ccco1 (centres unmarked) [ST011765, ethyl 5-amino-6-(ethoxycarbonyl)-7-(2-furyl)-2-(2-furylmethylene)-3-oxo-4,7-dihydro-1,3-thiazolidino[3,2-a]pyridine-8-carboxylate]	29.42 % of control	42.57 % of control		
